Measured values as given in paper PMC12470154, “In Vitro Evaluation of Antimicrobial Amyloidogenic Peptides for the Treatment of Early and Mature Bacterial Biofilms” (International Journal of Molecular Sciences, 2025).

Legend:
[1] = test system: P. aeruginosa (2943 strain); assay: Early biofilm formation, crystal violet staining; assay type: cell-based, Pseudomonas aeruginosa; conditions: 24 h; for change of optical density after crystal violet staining vs negative control: peptide present from inoculation, OD 595 nm
Method: (§1) After 24 h of incubation, the medium was removed. To assess the total biofilm biomass, the wells were rinsed with sterile PBS solution and stained with 0.1% crystal violet. The dye bound to the surface was then removed using 95% ethanol. To assess the presence of metabolically active cells, 0.3% MTT (PanEco Ltd., Moscow, Russia) solution was added to each well, and the plates were incubated at 37 °C for 2 h. After incubation, the MTT solution was removed, 150 µL of DMSO (Chimmed, Moscow, Russia) and 25 µL of glycine buffer were added to each well, and the plates were left at room temperature for 15 min. The resulting solutions were transferred to a flat-bottom 96-well plate, and optical density was measured at 595 nm.

[2] = test system: P. aeruginosa (2943 strain); assay: Mature biofilms, MTT assay; assay type: cell-based, Pseudomonas aeruginosa; parameters: key: ↓: Decrease in the parameter (optical density) compared to the negative control; −: No decrease in the parameter; ↑: Reverse effect (increase in the optical density compared to the control); conditions: mature biofilm: peptide added after 24 h, further 24 h; 0.01-10 mg/mL
Method: as §1
(§2) A stationary-phase culture of the tested strain was diluted 100-fold in fresh medium (200 µL per well) and added to the wells of a 96-well round-bottom plate. […] After another 24 h, the medium was removed and the wells were rinsed with sterile PBS to eliminate planktonic cells. The procedures for assessing total biofilm biomass and cell metabolic activity using crystal violet and MTT assays were performed in the same manner as described above for early-stage biofilm experiments.

S. aureus (129B strain) [3] = assay: Early biofilm formation, crystal violet staining; assay type: cell-based, Staphylococcus aureus; parameters: key: ↓: Decrease in the parameter (optical density) compared to the negative control; −: No decrease in the parameter; ↑: Reverse effect (increase in the optical density compared to the control); conditions: peptide present from inoculation, 24 h, OD 595 nm
Method: as §1

E. coli (MG1655 strain) [4] = assay: Early biofilm formation, MTT assay; assay type: cell-based, Escherichia coli; parameters: key: ↓: Decrease in the parameter (optical density) compared to the negative control; −: No decrease in the parameter; ↑: Reverse effect (increase in the optical density compared to the control); conditions: 24 h, 0.3% MTT 2 h 37 °C, OD 595 nm
Method: as §1

[5] = test system: P. aeruginosa (2943 strain); assay: Early biofilm formation, MTT assay; assay type: cell-based, Pseudomonas aeruginosa; parameters: key: ↓: Decrease in the parameter (optical density) compared to the negative control; −: No decrease in the optical density; ↑: Reverse effect (increase in the optical density compared to the control); conditions: 24 h, 0.3% MTT 2 h 37 °C, OD 595 nm
Method: as §1

E. coli (MG1655 strain) [6] = assay: Antibacterial activity in liquid medium (optical density); assay type: cell-based, Escherichia coli; parameters: key to change of optical density vs negative control: ↓: Decrease in the parameter (optical density) compared to the negative control; −: No decrease in the parameter; ↑: Reverse effect (increase in the optical density compared to the control); conditions: 24 h, 37 °C; for change of optical density vs negative control: OD 595 nm
Method: (§3) To evaluate the antibacterial activity of peptides in liquid culture, a stationary-phase culture of the tested bacterial strain was diluted 100-fold in fresh medium containing peptides or gentamicin (positive control) at the specified concentrations. A total volume of 200 µL was added to each well of a 96-well round-bottom microtiter plate. After 24 h of incubation at 37 °C, the samples were transferred to a flat-bottom 96-well microtiter plate, and the optical density was measured at 595 nm. Separately, the optical density of medium containing peptides but no bacteria was measured. These values were used as baseline (zero) readings for subsequent data analysis.

S. aureus (129B strain) [7] = assay: as above; assay type: cell-based, Staphylococcus aureus; parameters: key to change of optical density vs negative control: ↓: Decrease in the parameter (optical density) compared to the negative control; −: No decrease in the parameter; ↑: Reverse effect (increase in the optical density compared to the control); conditions: 24 h, 37 °C; for change of optical density vs negative control: OD 595 nm
Method: as §3

MRSA (SA 180-F strain) [8] = assay: Mature biofilms, crystal violet staining; assay type: cell-based, methicillin-resistant Staphylococcus aureus; parameters: key: ↓: Decrease in the parameter (optical density) compared to the negative control; −: No decrease in the optical density; ↑: Reverse effect (increase in the optical density compared to the control); conditions: mature biofilm: peptide added after 24 h, further 24 h; 0.01-10 mg/mL
Method: as §1, §2

E. coli (MG1655 strain) [9] = assay: Mature biofilms, crystal violet staining; assay type: cell-based, Escherichia coli; parameters: key: ↓: Decrease in the parameter (optical density) compared to the negative control; −: No decrease in the parameter; ↑: Reverse effect (increase in the optical density compared to the control); conditions: mature biofilm: peptide added after 24 h, further 24 h; 0.01-10 mg/mL
Method: as §1, §2

[10] = test system: P. aeruginosa (2943 strain); assay: Antibacterial activity on 0.7% agar (inhibition zone); assay type: cell-based, Pseudomonas aeruginosa; parameters: key: +: The presence of a bacterial growth inhibition zone; −: The absence of a bacterial growth inhibition zone; conditions: drop on 0.7% agar, 24 h
Method: Drops of the samples were applied to the surface of solidified 0.7% agar at the concentrations indicated in Table 2 and Supplementary S2 (Figures S1–S4). After 24 h of incubation, the results were evaluated based on the presence or absence (+/−) of inhibition zones.
Once the agar solidified, drops of peptide samples at the concentrations 1, 0.1, 0.01, and 0.001 mg/mL were applied to the agar surface.

MRSA (SA 180-F strain) [11] = assay: Early biofilm formation, crystal violet staining; assay type: cell-based, methicillin-resistant Staphylococcus aureus; conditions: for concentration given with ↓ (crystal violet): 24 h; for biofilm biomass following treatment (crystal violet): Table 3; for effectiveness compared to meropenem: tested concentrations 0.01, 0.1, 1, 10 mg/mL, crystal violet
Method: as §1

S. aureus (129B strain) [12] = assay: Mature biofilms, MTT assay; assay type: cell-based, Staphylococcus aureus; parameters: key: ↓: Decrease in the parameter (optical density) compared to the negative control; −: No decrease in the optical density; ↑: Reverse effect (increase in the optical density compared to the control); conditions: mature biofilm: peptide added after 24 h, further 24 h; 0.01-10 mg/mL
Method: as §1, §2

Sequence | change of optical density after crystal violet staining vs negative control [1] | change of optical density after MTT assay vs negative control [2] | change of optical density after crystal violet staining vs negative control (S. aureus (129B strain) [3]) | change of optical density after MTT assay vs negative control (E. coli (MG1655 strain) [4]) | change of optical density after MTT assay vs negative control [5] | change of optical density vs negative control (E. coli (MG1655 strain) [6]) | concentration given with ↓ (decrease in optical density) (S. aureus (129B strain) [7]) | change of optical density vs negative control (S. aureus (129B strain) [7]) | change of optical density after crystal violet staining vs negative control (MRSA (SA 180-F strain) [8]) | concentration given with ↓ (crystal violet) [1] | change of optical density after crystal violet staining vs negative control (E. coli (MG1655 strain) [9]) | concentration given with ↓ (decrease in optical density) (E. coli (MG1655 strain) [6]) | bacterial growth inhibition zone ([10]; 0.001 mg/mL) | bacterial growth inhibition zone ([10]; 0.01 mg/mL) | bacterial growth inhibition zone ([10]; 0.1 mg/mL) | bacterial growth inhibition zone ([10]; 1 mg/mL) | concentration given with ↓ (crystal violet) (MRSA (SA 180-F strain) [11]) | biofilm biomass following treatment (crystal violet) (MRSA (SA 180-F strain) [11]) | effectiveness compared to meropenem (MRSA (SA 180-F strain) [11]; Figure 1) | change of optical density after MTT assay vs negative control (S. aureus (129B strain) [12]) | other results
ITDFGIFIGLGGGGSRQIKIWFQNRRMKWKK [I31K^P] | − | ↑ | ↑ | ↑ | − | − | 0.1 mg/mL | ↓ (0.1 mg/mL) |  |  |  |  |  |  |  |  |  |  |  |  | 
RKKRRQRRRGGGGITDFGIFIGL [R23L^P] | ↓ (10 mg/mL) | ↑ | ↑ | ↑ |  | ↓ (0.1 mg/mL) | 1 mg/mL | ↓ (1 mg/mL) | − | 10 mg/mL | ↑ | 0.1 mg/mL | − | − | − | + | 10 mg/mL | marked reduction in biofilm biomass | less effective compared to meropenem | − | effect on MRSA biofilm formation (crystal violet staining intensity) (MRSA (SA 180-F strain) [11]; 0.01 mg/mL, Figure 1): inhibitory effect
RKKRRQRRRGGGGVTDFGVFVEI [R23I^T, TAT cell-penetrating peptide linked via glycine linker to amyloidogenic fragment of S1 ribosomal protein of T. thermophilus] | − |  | ↑ | ↑ | − | ↑ |  | ↑ | − |  |  |  | − | − | − | + |  |  |  | − | 
RKKRRQRRRGGGGVVVHINGGKFGGGGSRQIKIWFQNRRMKWKK [R44K^S] | ↓ (10 mg/mL) | ↑ | ↑ |  | − | ↓ (0.1 mg/mL) | 10 mg/mL | ↓ (10 mg/mL) |  | 10 mg/mL | ↑ | 0.1 mg/mL | − | − | − | + | 1 mg/mL | marked reduction in biofilm biomass | less effective compared to meropenem | − | change of optical density after MTT assay vs negative control (E. coli (MG1655 strain) [4]; listed as R44K^P): ↑; bacterial growth inhibition zone ([10]; 1 mg/mL, listed as R44K^P): −; effect on MRSA biofilm formation (crystal violet staining intensity) (MRSA (SA 180-F strain) [11]; 1 and 10 mg/mL, Figure 1, two independent replicates): inhibitory effect; concentration given with ↓ (crystal violet) (MRSA (SA 180-F strain) [11]; listed as R44K^P): 10 mg/mL; change of optical density vs negative control (S. aureus (129B strain) [7]; listed as R44K^P): ↑
VTDFGVFVEIGGGGSRQIKIWFQNRRMKWKK [V31K^T, amyloidogenic fragment of S1 of T. thermophilus linked via glycine-rich linker to antennapedia peptide] | − | ↑ | ↑ |  | − | − |  | − | − | 10 mg/mL | ↑ | 0.1 mg/mL | − | − | − | − | 10 mg/mL | marked reduction in biofilm biomass | less effective compared to meropenem | − | change of optical density after crystal violet staining vs negative control ([1]; listed as V31K^S): ↓ (10 mg/mL); change of optical density vs negative control (E. coli (MG1655 strain) [6]; listed as V31K^S): ↓ (0.1 mg/mL); effect on MRSA biofilm formation (crystal violet staining intensity) (MRSA (SA 180-F strain) [11]; 0.01 mg/mL, Figure 1): inhibitory effect; effect on MRSA biofilm formation (crystal violet staining intensity) (MRSA (SA 180-F strain) [11]; 10 mg/mL, Figure 1): reversed; change of optical density vs negative control (S. aureus (129B strain) [7]; listed as V31K^S): ↑
